Source: patent US20110250243A1, “NANOPARTICLE COMPOSITIONS” (priority 2008, published 2011)

Assay: Encapsulation of coumarin-6 in PEC nanoparticles by solvent displacement
Assay type: physicochemical
Conditions: solvent displacement method
Description: Coumarin-6 is used (absorption: 485 nm, emission: 505-525 nm) as it allows to optically detect a potential phagocytosis process and furthermore, is a suitable model for a lipophilic agent. Due to its lipophilic characteristics and low water solubility, coumarin-6 can suitably be processed by the solvent displacement method, in order to achieve a high packaging rate. The encapsulation efficiency is very high and lies close to 100%. The preparation of the loaded nanoparticles is also performed using the modified solvent-displacement method as described in example 2. Coumarin-6 is used in a stock solution of 50 μg/ml in acetonitrile (the stock solution is stored in the refrigerator and protected by light e.g. by using aluminium foil) and the PEC 95 and 99 polymers as a 10 mg/ml stock solution in acetonitrile. All samples are set up in triplicate. For loading the nanoparticles the required amounts of PEC stock solution and coumarin-6 stock solution are mixed, filled up with acetonitrile up to 1.5 ml and vortexed (see table 2). This solution is then injected into the PVA solution according to the usual schema (see above).

- Encapsulation efficiency: ~100%
SMILES: CCN(CC)c1ccc2cc(-c3nc4ccccc4s3)c(=O)oc2c1 [coumarin-6]
